In US9808423B2, “Preparation of suspension aerosol formulations” (Generics [UK] Limited, priority 2004, dated 2017):

Test: Sympatec laser diffraction particle size of micronized medicament
Type: physicochemical
Conditions: Sympatec laser diffraction instrument; micronized starting material of Example 10
Procedure: A stock solution of 16.0 g of ethanol USP and 0.0053 g of oleic acid was prepared. Into each of three 14-mL fluoropolymer (FEP-PES) coated aluminum canisters was added 7 mg of micronized salmeterol xinafoate, having a volume mean diameter (X50) of 1.6 μm as measured using a Sympatec laser diffraction instrument. To each canister was then added 10.0 g of HFA-134a, at about −70° C., and approximately 0.20 g of the stock solution. A 50-μL metering valve was crimp sealed to each canister. Each canister was sonicated for 1.5 minutes to promote mixing of the formulation and deaggregation of the medicament particles.

volume mean diameter (X50): 1.6 μm
SMILES: OCc1cc(C(O)CNCCCCCCOCCCCc2ccccc2)ccc1O (stereo not shown) [micronized salmeterol xinafoate, salmeterol xinafoate]
